In ChEMBL document CHEMBL1141053, “Synthesis and SAR of novel oxazolidinones: discovery of ranbezolid” (2005) one finds MIC and ED50 data, which are given here for 13 molecules.

Converted amounts (≈) assume the structure as drawn.

Type in all cases: functional
The test system of one test is Enterococcus faecalis. As to the kind of experiment: In vitro minimum inhibitory concentration against Enterococcus faecalis ATCC 29212 after incubation in air at 35 degree C for 24 hr using agar dilution method. The following applies: ATCC 29212, 24 h.
For a further test, the system named is Streptococcus pyogenes. As to the kind of experiment: In vitro minimum inhibitory concentration against Streptococcus pyogenes ATCC 19615 after incubation in air at 35 degree C for 24 hr using agar dilution method. Conditions: ATCC 19615, 24 h. (In general: In agar dilution, organisms are placed on agar that contains the substance at set levels.)
A further test deals with Enterococcus faecium. Put plainly: In vitro minimum inhibitory concentration against vancomycin-resistant Enterococcus faecium 6A after incubation in air at 35 degree C for 24 hr using agar dilution method.
Test [1] has as its system Staphylococcus aureus. Put plainly: In vitro minimum inhibitory concentration against Staphylococcus aureus ATCC 25923 after incubation in air at 35 degree C for 24 hr using agar dilution method. The following applies: ATCC 25923, 24 h.
Test [2] has as its system Staphylococcus aureus. Put plainly: In vivo effective dose (on day 7-post-infection) against methicillin-resistant Staphylococcus aureus 562 infected mice upon peroral administration at 30 min and 4 hr post-infection. Conditions: po.
Test [3] deals with Staphylococcus aureus. Put plainly: In vitro minimum inhibitory concentration against methicillin-resistant Staphylococcus aureus 562 after incubation in air at 35 degree C for 24 hr using agar dilution method.
A further test concerns Streptococcus pneumoniae. Put plainly: In vitro minimum inhibitory concentration against Streptococcus pneumoniae ATCC 6303 after incubation in air at 35 degree C for 24 hr using agar dilution method. The following applies: ATCC 6303, 24 h.

As for `CC(=O)NC[C@H]1CN(c2ccc(N3C[C@@H]4[C@@H](CN(C)c5ccc([N+](=O)[O-])o5)[C@@H]4C3)c(F)c2)C(=O)O1`, the MIC (in general, the lowest concentration that inhibits growth of the organism) in the test with Enterococcus faecalis turned out to be 4 µg/mL (≈ 8.21 µM); with Streptococcus pyogenes it was 0.125 µg/mL (≈ 0.256 µM); in the test with Enterococcus faecium, 2 µg/mL (≈ 4.1 µM); in the test on Staphylococcus aureus [1], 2 µg/mL (≈ 4.1 µM); against Staphylococcus aureus [3], 1 µg/mL (≈ 2.05 µM). In addition, the ED50 (as a rule, the dose that gives a 50% effect, or the effect in half of the subjects) in the test on Staphylococcus aureus [2] is > 25 mg/kg.
In the case of `CC(=O)NC[C@H]1CN(c2ccc(N3CCN(Cc4ccc(Br)o4)CC3)c(F)c2)C(=O)O1`, the MIC with Enterococcus faecalis, in the test with Streptococcus pneumoniae, against Streptococcus pyogenes, against Enterococcus faecium, in the test on Staphylococcus aureus [1] and with Staphylococcus aureus [3] was > 16 µg/mL throughout.
For the molecule `CC(=O)NC[C@H]1CN(c2ccc(N3CCN(Cc4ccc([N+](=O)[O-])[nH]4)CC3)c(F)c2)C(=O)O1`, the MIC was determined as 4 µg/mL (≈ 8.69 µM) against Enterococcus faecalis; 4 µg/mL (≈ 8.69 µM) against Streptococcus pneumoniae; 1 µg/mL (≈ 2.17 µM) against Streptococcus pyogenes; 4 µg/mL (≈ 8.69 µM) in the test on Enterococcus faecium; 4 µg/mL (≈ 8.69 µM) against Staphylococcus aureus [1]; 4 µg/mL (≈ 8.69 µM) in the test with Staphylococcus aureus [3].
As for `CC(=O)NC[C@H]1CN(c2ccc(N3CCN(Cc4ccc(COC(C)=O)o4)CC3)c(F)c2)C(=O)O1`, the minimal inhibitory concentration (MIC) against Enterococcus faecalis, against Streptococcus pneumoniae, in the test with Streptococcus pyogenes, against Enterococcus faecium, in the test on Staphylococcus aureus [1] and against Staphylococcus aureus [3] was > 16 µg/mL throughout.
Consider `CC(=O)NC[C@H]1CN(c2ccc(N3CCC(N(C(C)=O)c4ccc([N+](=O)[O-])o4)CC3)c(F)c2)C(=O)O1`, for which the minimum inhibitory concentration (MIC) with Enterococcus faecalis, in the test with Streptococcus pneumoniae, with Streptococcus pyogenes, in the test on Enterococcus faecium, in the test on Staphylococcus aureus [1] and in the test with Staphylococcus aureus [3] was > 16 µg/mL throughout.
Take `CC(=O)NC[C@H]1CN(c2ccc(N3CCOCC3)c(F)c2)C(=O)O1` [LINEZOLID]: the MIC against Streptococcus pyogenes and with Enterococcus faecium was 2 µg/mL (≈ 5.93 µM) throughout. In the test on Staphylococcus aureus [2], this molecule yielded a 50% effective dose (ED50) of 5.6 mg/kg.
`CCOC(=O)c1ccc(CN2CCN(c3ccc(N4C[C@H](CNC(C)=O)OC4=O)cc3F)CC2)o1`: the MIC in the test on Enterococcus faecalis, against Streptococcus pneumoniae, in the test on Streptococcus pyogenes, with Enterococcus faecium, in the test on Staphylococcus aureus [1] and with Staphylococcus aureus [3] was > 16 µg/mL in each case.
As for `CC(=O)NC[C@H]1CN(c2ccc(N3CCCN(Cc4ccc([N+](=O)[O-])o4)CC3)c(F)c2)C(=O)O1.Cl`, the MIC in the test with Enterococcus faecalis turned out to be 2 µg/mL; against Streptococcus pneumoniae, 1 µg/mL; in the test on Streptococcus pyogenes, 1 µg/mL; with Enterococcus faecium, 2 µg/mL; against Staphylococcus aureus [1], 2 µg/mL; against Staphylococcus aureus [3], 1 µg/mL. Moreover, the 50% effective dose (ED50) in the test with Staphylococcus aureus [2] was > 25 mg/kg.
With `CC(=O)NC[C@H]1CN(c2ccc(N3CCN(Cc4ccc(/C=N/N)o4)CC3)c(F)c2)C(=O)O1`, the MIC in the test with Enterococcus faecalis turned out to be 8 µg/mL (≈ 17.4 µM); against Streptococcus pneumoniae, 8 µg/mL (≈ 17.4 µM); in the test on Streptococcus pyogenes it was 8 µg/mL (≈ 17.4 µM); in the test on Enterococcus faecium it was 8 µg/mL (≈ 17.4 µM); against Staphylococcus aureus [1] it was 2 µg/mL (≈ 4.36 µM); in the test with Staphylococcus aureus [3], 1 µg/mL (≈ 2.18 µM).
For the molecule `CC(=O)NC[C@H]1CN(c2ccc(N3C[C@@H](C)N(Cc4ccc([N+](=O)[O-])o4)[C@@H](C)C3)c(F)c2)C(=O)O1`, the MIC in the test with Enterococcus faecalis amounted to 8 µg/mL (≈ 16.3 µM); against Streptococcus pneumoniae, 16 µg/mL (≈ 32.7 µM); in the test with Streptococcus pyogenes it was 16 µg/mL (≈ 32.7 µM); against Enterococcus faecium it was 8 µg/mL (≈ 16.3 µM); in the test with Staphylococcus aureus [1], 16 µg/mL (≈ 32.7 µM); in the test on Staphylococcus aureus [3], 8 µg/mL (≈ 16.3 µM).
As to `CC(=O)NC[C@H]1CN(c2ccc(N3CCN(Cc4ccc(C)o4)CC3)c(F)c2)C(=O)O1`, the MIC in the test on Enterococcus faecalis, against Streptococcus pneumoniae, with Streptococcus pyogenes, against Enterococcus faecium, in the test with Staphylococcus aureus [1] and in the test with Staphylococcus aureus [3] was > 16 µg/mL each time.
On to `CC(=O)NC[C@H]1CN(c2ccc(N3CCN(Cc4ccc(Cl)o4)CC3)c(F)c2)C(=O)O1`, for which the MIC against Enterococcus faecalis, with Streptococcus pneumoniae, against Streptococcus pyogenes, in the test with Enterococcus faecium, against Staphylococcus aureus [1] and in the test with Staphylococcus aureus [3] was > 16 µg/mL throughout.
Take `CC(=O)NC[C@H]1CN(c2ccc(N3CCN(Cc4ccc(C#N)o4)CC3)c(F)c2)C(=O)O1`: the MIC against Enterococcus faecalis, in the test with Streptococcus pneumoniae, with Streptococcus pyogenes, against Enterococcus faecium, against Staphylococcus aureus [1] and in the test on Staphylococcus aureus [3] was 16 µg/mL (≈ 36.2 µM) each time.
